This is an account of results in publication PMC5437200, “Ionic liquids for the passive sampling of sulfonamides from water—applicability and selectivity study” (Analytical and Bioanalytical Chemistry, 2017).

A short description of series [1]: octanol-water shake experiment for logKOW and logDOW. The format is physicochemical. The conditions noted are these: for logD: n-octanol/ultrapure water pH 5.6, room temperature, read-out: LogD OW pH 5.6 (exp); for LogK OW (exp): n-octanol/ultrapure water, room temperature.
On the set-up of series [2]: method as in PMID 22579461. The conditions noted are these: cited from earlier work.
Series [3] can be described thus: ionization degrees of sulfonamides in the donor solution (calculated). The format is physicochemical. The conditions noted are these: initial pH 5.64; calculated using equations in ref 39.
Series [4] in a line: stability (recovery) of ionic liquids inside the PASSIL dosimeter. The format is physicochemical. The conditions noted are these: PES membranes, 14-day passive sampling, 20 °C; from IL mass before and after. How it is done:
Passive sampling experiments were conducted analogously to previous studies. The passive dosimeter was made of plexiglass and contained two polyethersulfone (PES) membranes with their inner sides covered with the receiving phase—ionic liquid (separately for each of the seven tested ILs) of a total mass equal to 200 mg. Nylon (Phenomenex) and Teflon (Merck) membranes were also tested. The donor phase was 100 mL of water solution with an initial sulfonamide concentration of 2 μg mL^−1. The experimental setup was kept away from light radiation and at a constant temperature (20 °C). Each extraction lasted 14 days and the samples (1 mL) of the donor solution were collected every 2 days. The solution was stirred using a magnetic stirrer (1000 rpm), which was not renewed. After the experiment, the receiving phase was dissolved using 50 mL of acetonitrile. All the obtained samples (both from the donor and receiving phases) were analyzed by HPLC with a diode-array detector (DAD, Schimadzu, 272 nm). The analysis was performed using a Gemini 5-μm C18 column (Phenomenex). The injection volume was 10 μL. The flow rate was 1.5 mL min^−1. Acetonitrile (ACN) was used as the organic component of the mobile phase, and the aqueous component was an acetate buffer (5 mmol L^−1 CH3COONH4, pH = 4) with 5% of ACN. The mobile phase gradient was applied. The recovery of the receiving phase, the extraction efficiency, and the sampling rate (for [P666-14][N(CN)2]) were calculated for each analyte according to the equations presented in [30]. Moreover, micrographs using a HITACHI S-3400N scanning electron microscope (SEM) were taken to study the morphological appearance of the membranes covered with an ionic liquid [P666-14][N(CN)2].
The basic parameter of an applied ionic liquid is its physical stability inside the homemade dosimeter expressed by the IL recovery (%) calculated from the difference between ionic liquid masses before and after the passive sampling. The highest recovery (more than 90%) of ionic liquids was achieved by phosphonium-cation-based ILs and PES membranes (Fig. 3). […]

With `Nc1ccc(S(=O)(=O)Nc2ccc(Cl)nn2)cc1` [SCP, sulfachloropyridazine], in series [1], the pH-dependent lipophilicity (logD) turned out to be 0 and the “LogK OW (exp)” value came to 0.36. For the same compound, in series [2], the pKa2 is reported as 2.2 and the pKa3 was 5.5. In addition, in series [3], the α2 ionization degree was 100.0% and the “α3 ionization degree (negatively charged form)” value (from here on “α3 ionization degree”) is 58.0%.
For `COc1cc(NS(=O)(=O)c2ccc(N)cc2)nc(OC)n1` [SDX, sulfadimethoxine], in series [2], the pKa2 is reported as 2.5 and the pKa3 was 5.9. Moreover, in series [3], the α2 ionization degree is 99.9% and the “α3 ionization degree” value was 35.5%.
Turning to `Nc1ccc(S(=O)(=O)Nc2ncccn2)cc1` [SDZ, sulfadiazine], in series [2], the pKa2 is 1.8.
Regarding `Cc1nnc(NS(=O)(=O)c2ccc(N)cc2)s1` [SMT, sulfamethiazole], in series [1], the logD is -0.34 and the “LogK OW (exp)” value came out at 0.01. Moreover, in series [2], the pKa2 is 1.8 and the pKa3 is 5.5. Besides, in series [3], the α2 ionization degree is 100.0% and the “α3 ionization degree” value is reported as 58.0%.
Turning to `Cc1ccnc(NS(=O)(=O)c2ccc(N)cc2)n1` [SMZ, sulfamerazine], in series [1], the pH-dependent lipophilicity (logD) came out at 0.16 and the “LogK OW (exp)” value turned out to be 0.19. In series [2], the pKa2 is 1.8 and the pKa3 is reported as 6.8. Besides, in series [3], the α2 ionization degree is reported as 100.0% and the “α3 ionization degree” value is given as 6.5%.
In the case of `Nc1ccc(S(=O)(=O)Nc2ccccn2)cc1` [SPD, sulfapyridine], in series [1], the logD was found to be 0.04 and the “LogK OW (exp)” value worked out at 0.04. For the same compound, in series [2], the pKa2 was 2.4 and the pKa3 is recorded as 8.2. In addition, the α2 ionization degree in series [3] was 99.9%.
Regarding `Nc1ccc(S(=O)(=O)Nc2nccs2)cc1` [STZ, sulfathiazole], in series [1], the log distribution coefficient (logD) was -0.17 and the “LogK OW (exp)” value is −0.16. In series [2], the pKa2 is given as 2.1 and the pKa3 was 7.1. In addition, in series [3], the α2 ionization degree is 100.0% and the “α3 ionization degree” value is reported as 3.4%.
Take `CCCCCCCCCCCCCC[P+](CCCCCC)(CCCCCC)CCCCCC.FC(F)(F)C(F)(F)[P-](F)(F)(F)(C(F)(F)C(F)(F)F)C(F)(F)C(F)(F)F` [[P666-14][(C2F5)3PF3], trihexyl(tetradecyl)phosphonium tri(pentafluoroethyl)trifluorophosphate]: in series [4], the IL recovery is recorded as 98.5%.
Still for that read-out and setting: for `CCCCCCCCCCCCCC[P+](CCCCCC)(CCCCCC)CCCCCC.N#C[N-]C#N` [[P666-14][N(CN)2], trihexyl(tetradecyl)phosphonium dicyanamide] the value was 92.4%.
In series [4], `CCCCCCCCCCCCCC[P+](CCCCCC)(CCCCCC)CCCCCC.O=S(=O)([N-]S(=O)(=O)C(F)(F)F)C(F)(F)F` [[P666-14][TFN], trihexyl(tetradecyl)phosphonium bis(trifluoromethylsulfonyl)imide] returned an IL recovery of 98.9%.
